From EPA's ToxValDB 9.5 (doi:10.2903/j.efsa.2008.183r) come the findings set out here.

In brackets after ≈: the same amount, converted by molar mass.

One series has as its system Colinus virginianus. The following applies: acute, oral, mortality; for LC50: diet.
Another series relates to Anas platyrhynchos. As to conditions: short-term; oral; feed; mortality.
The test system of the next series is Oncorhynchus mykiss. The following applies: acute; duration: 96 hours; mortality.
The test system of the next series is Rattus norvegicus. As to conditions: inhalation.
The test system of the next series is Coturnix japonica. The following applies: reproduction developmental; reproduction.
[1] abbreviates: chronic, duration: 2 years, no effects.
Where [2] appears, read: reproduction developmental, mortality.
The mark [3] stands for this setting: subchronic, duration: 90 days, no effects.

With `P` [Phosphine], the LC50 with Colinus virginianus was determined as 124 mg/kg; in the series with Anas platyrhynchos, 762 mg/kg; in the series on Oncorhynchus mykiss, 4.68 ng/mL (≈ 0.138 µM). Also, the LD50 in the series with Colinus virginianus was ≤ 9.2 mg/kg-day. The NOAEL (commonly the highest tested level that showed no adverse finding) in the series on Rattus norvegicus (setting [1]) was 1.1 mg/kg-day; with Rattus norvegicus (setting [2]), 1.9 mg/kg-day; in the series on Rattus norvegicus (setting [3]), 1.1 mg/kg-day.

Regarding `[Ca+2].[Ca+2].[Ca+2].[P-3].[P-3]` [Tricalcium diphosphide], the LC50 in the series on Colinus virginianus was found to be 330 mg/kg; in the series on Anas platyrhynchos, 2040 mg/kg. Also, in the series on Colinus virginianus, the LD50 was < 24.7 mg/kg-day. Moreover, the no observed adverse effect level (NOAEL) is 1.1 mg/kg-day in the series on Rattus norvegicus (setting [1]), 1.9 mg/kg-day with Rattus norvegicus (setting [2]) and 1.1 mg/kg-day in the series on Rattus norvegicus (setting [3]).

As to `[PH]=[Zn].[PH]=[Zn].[Zn]` [Zinc phosphide (Zn3P2)], in the series on Colinus virginianus, the LC50 was 469 mg/kg and the LD50 was < 35 mg/kg-day. Moreover, in the series on Anas platyrhynchos, the LC50 was found to be 2880 mg/kg. Besides, the NOEC in the series with Coturnix japonica is < 3.5 mg/kg-day.
